Results: the supplement of paper PMC8633005

Key:
Assay in all cases: drug sensitivity score (DSS) (DSS (unitless, 0-50 scale)); higher = more sensitive (stronger viability inhibition); extreme values may be limits of the assay
Conditions in all cases: 72 h; culture: 2D
SK-MEL-2 = test system: SK-MEL-2
Method in brief: (§1)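 Drug sensitivity scores, modified area-under-curve measures, were derived from dose-response curves fitted in the in-house Breeze software. The curves came from melanoma cell lines and patient-derived melanoma cultures (1000–1500 cells per well) grown in 2D in 384-well plates holding a 527-compound oncology library. Each compound was dissolved in DMSO or water and tested at five concentrations across a 10,000-fold range. Viability was read by CellTiter-Glo luminescence after 72 h at 37 °C.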

WM165 = test system: WM165
Method in brief: as §1

FM-MEL-6 = test system: FM-MEL-6
Method in brief: as §1

SK-MEL-28 = test system: SK-MEL-28
Method in brief: as §1

FM-MEL-2 = test system: FM-MEL-2
Method in brief: as §1

WM852 = test system: WM852
Method in brief: as §1

FM-MEL-3 = test system: FM-MEL-3
Method in brief: as §1

Bowes = test system: Bowes
Method in brief: as §1

| SMILES | drug sensitivity score (SK-MEL-2) | drug sensitivity score (WM165) | drug sensitivity score (FM-MEL-6) | drug sensitivity score (SK-MEL-28) | drug sensitivity score (FM-MEL-2) | drug sensitivity score (WM852) | drug sensitivity score (FM-MEL-3) | drug sensitivity score (Bowes) |
| --- | --- | --- | --- | --- | --- | --- | --- | --- |
| O=C(c1cccc(Cl)c1F)N1CCN(Cc2cccc(Nc3nccs3)n2)CC1 [MK-8745] | 0 | 5.7 | 0 | 0.4 | 0 | 7.5 | 0.1 | 5.7 |
| Cn1cc(-c2cnn3c(N)c(Br)c([C@@H]4CCCNC4)nc23)cn1 [MK-8776] | 2 | 0 | 0 | 0 | 0 | 1.9 | 1.7 | 0.9 |
| Cc1cnc(-c2ccccc2C(C)C)nc1NCc1ccc(-n2ccnn2)cc1 [ML323] | 0 | 1.1 | 0 | 0 | 0 | 0.9 | 1.2 | 0.6 |
| O=C(CCNC(=O)c1ccc(OC(F)(F)F)cc1)N[C@@H]1CCCc2ccccc21 [ML390] | 0 | 6.8 | 1.2 | 2.8 | 0 | 0 | 6.7 | 0 |
| O=C(Nc1cccc(NC(=O)c2cccc(O)c2O)c1)c1cccc(O)c1O [MST-312] | 6.7 | 16 | 4 | 8.4 | 6.1 | 6.8 | 10.3 | 11.4 |
| CNC(=O)[C@@H](NC(=O)[C@H](CC(C)C)[C@H](O)C(=O)NO)C(C)(C)C [Marimastat] | 0 | 0.6 | 0 | 0 | 0 | 0 | 0 | 0 |
| Cc1ccc(NC(=O)c2ccc(CN3CCN(C)CC3)cc2)cc1Nc1nc(-c2cccnc2)cs1 [Masitinib] | 2.1 | 3.3 | 4.4 | 3.5 | 6.4 | 5.7 | 4.3 | 2.3 |
| CC(=O)O[C@]1(C(C)=O)CC[C@H]2[C@@H]3C=C(C)C4=CC(=O)CC[C@]4(C)[C@H]3CC[C@@]21C [Megestrol acetate] | 0 | 0 | 0 | 0 | 0 | 0 | 1 | 0 |
| CCN(CC)CCCC(C)Nc1c2ccc(Cl)cc2nc2ccc(OC)cc12 (stereo unspecified) [Mepacrine] | 13.6 | 17.1 | 14.2 | 10.3 | 15.1 | 17 | 9.9 | 19.6 |
| S=c1[nH]cnc2nc[nH]c12 [Mercaptopurine] | 0 | 7.3 | 0.5 | 3.8 | 0.1 | 5.5 | 0 | 1.9 |
| Cc1ccc(C(=O)Nc2ccc(Oc3cc4cnn(C)c4cc3-c3cn[nH]c3)c(F)c2)c(=O)n1-c1ccc(F)cc1 [Merestinib] | 0 | 0 | 0 | 0.4 | 0 | 2.2 | 0 | 0 |
| CN(C)C(=N)NC(=N)N [Metformin] | 0 | 0 | 0 | 0 | 0 | 0 | 0 | 0 |
| CN(Cc1cnc2nc(N)nc(N)c2n1)c1ccc(C(=O)N[C@@H](CCC(=O)O)C(=O)O)cc1 [Methotrexate] | 0 | 14.4 | 0 | 9 | 0 | 0 | 0 | 27.7 |
| C[C@H]1C[C@@H]2[C@H]([C@@H](O)C[C@@]3(C)[C@H]2CC[C@]3(O)C(=O)CO)[C@@]2(C)C=CC(=O)C=C12 [Methylprednisolone] | 0 | 0 | 0 | 0.4 | 0 | 0 | 1.2 | 1 |
| CO[C@@H]1[C@H](N(C)C(=O)c2ccccc2)C[C@H]2O[C@]1(C)n1c3ccccc3c3c4c(c5c6ccccc6n2c5c31)C(=O)NC4 [Midostaurin] | 2.9 | 14.6 | 2.3 | 4.3 | 3.5 | 8.1 | 5.4 | 5.1 |
| CNC(=O)c1nn(C)c2c1C(C)(C)Cc1cnc(Nc3ccc(N4CCN(C)CC4)cc3)nc1-2 [Milciclib] | 7 | 12 | 9 | 8.7 | 6.5 | 5.1 | 7.5 | 11 |
| CCCCCCCCCCCCCCCCOP(=O)([O-])OCC[N+](C)(C)C [Miltefosine] | 2.1 | 6.2 | 1.2 | 1.8 | 0.4 | 2 | 6 | 5.9 |
| CO[C@@]12[C@H](COC(N)=O)C3=C(C(=O)C(C)=C(N)C3=O)N1C[C@@H]1N[C@@H]12 [Mitomycin C] | 2 | 6.2 | 0.8 | 1.9 | 0.2 | 0 | 3.5 | 3.1 |
| Clc1ccc(C(c2ccccc2Cl)C(Cl)Cl)cc1 (stereo unspecified) [Mitotane] | 0 | 0 | 0 | 0 | 0 | 0 | 0 | 1 |
| O=C1c2c(O)ccc(O)c2C(=O)c2c(NCCNCCO)ccc(NCCNCCO)c21 [Mitoxantrone] | 3.4 | 16.8 | 5.4 | 6.1 | 7.1 | 5.5 | 3.9 | 6.7 |
| CCS(=O)(=O)Nc1ccc(Oc2ccc(F)cc2F)c(-c2cn(C)c(=O)c3[nH]ccc23)c1 [Mivebresib] | 9 | 24.2 | 15.8 | 12.2 | 16.3 | 0.4 | 16.2 | 17 |

| SMILES | drug sensitivity score (SK-MEL-2) | drug sensitivity score (WM165) | drug sensitivity score (FM-MEL-6) | drug sensitivity score (SK-MEL-28) | drug sensitivity score (FM-MEL-2) | drug sensitivity score (WM852) | drug sensitivity score (FM-MEL-3) | drug sensitivity score (Bowes) |
| --- | --- | --- | --- | --- | --- | --- | --- | --- |
| Nc1ccccc1NC(=O)c1ccc(CNc2nccc(-c3cccnc3)n2)cc1 [Mocetinostat] | 9.4 | 11.9 | 11.4 | 9.9 | 6.7 | 1.7 | 8.4 | 6.4 |
| CCNC(=O)C[C@@H]1N=C(c2ccc(Cl)cc2)c2cc(OC)ccc2-n2c(C)nnc21 [Molibresib] | 0.5 | 6.5 | 5 | 1.8 | 3.8 | 0 | 4.8 | 3.8 |
| N#CCNC(=O)c1ccc(-c2ccnc(Nc3ccc(N4CCOCC4)cc3)n2)cc1 [Momelotinib] | 0.2 | 7.2 | 1.1 | 3.7 | 3.7 | 1.9 | 1.2 | 4.1 |
| CC1(C)CNc2cc(NC(=O)c3cccnc3NCc3ccncc3)ccc21 [Motesanib] | 0 | 0 | 0 | 0 | 0 | 0 | 0 | 0 |
| CCCN(CCC)C(=O)C1=Cc2ccc(-c3ccc(C(=O)N4CCCC4)cc3)cc2N=C(N)C1 [Motolimod] | 0 | 0 | 1.3 | 0 | 0.5 | 2.8 | 1.1 | 1.6 |
| FC(F)(F)c1ccc(/C=C/c2nc(COc3ccc(CCCCn4ccnn4)cc3)co2)cc1 [Mubritinib] | 0 | 2.3 | 0 | 0 | 0 | 15.5 | 9.3 | 6.4 |
| Cc1cc(OCc2nnc(SC3CCCC3)n2-c2cccnc2)ccc1-c1ccc(S(C)(=O)=O)cc1 [NMS-873] | 4.4 | 9.4 | 5 | 6.8 | 4.1 | 16.9 | 11.4 | 11.1 |
| COc1ccc(-c2ccc3ncc4c(c3c2)n(-c2ccc(N3CCNCC3)c(C(F)(F)F)c2)c(=O)n4C)cn1 [NVP-BGT226] | 13.6 | 18.3 | 12 | 11.5 | 11.7 | 11.9 | 13.1 | 19 |
| Cc1ccc(C(=O)Nc2cccc(C(F)(F)F)c2)cc1Nc1nc(-c2cccnc2)nc2c1cnn2C [NVP-BHG712] | 0 | 1.9 | 3.6 | 1.3 | 6.8 | 4.7 | 10.6 | 0 |
| COc1cc2c(cc1OC(C)C)[C@H](c1ccc(Cl)cc1)N(c1ccc(N(C)C[C@H]3CC[C@H](N4CCN(C)C(=O)C4)CC3)cc1)C(=O)C2 [NVP-CGM097] | 3.7 | 18 | 5 | 6.2 | 7.6 | 6.8 | 13.1 | 5.1 |
| CN[C@@H](C)C(=O)N[C@H](C(=O)N1CCC[C@H]1c1nc(C(=O)c2ccc(F)cc2)cs1)C1CCCCC1 [NVP-LCL161] | 0.2 | 0 | 3.9 | 0.9 | 14.9 | 2.4 | 4.5 | 3 |
| Cn1c(Nc2ccc(C(F)(F)F)cc2)nc2cc(Oc3ccnc(-c4ncc(C(F)(F)F)[nH]4)c3)ccc21 [NVP-RAF265] | 2.6 | 8.2 | 2 | 2.7 | 5.5 | 0 | 9.2 | 0.1 |
| CC(=O)c1cc2c(o1)C(=O)c1ccccc1C2=O [Napabucasin] | 15.7 | 27 | 22.1 | 16.8 | 4.2 | 19.1 | 19.6 | 20.5 |
| CC1(C)CCC(c2ccc(Cl)cc2)=C(CN2CCN(c3ccc(C(=O)NS(=O)(=O)c4ccc(N[C@H](CCN5CCOCC5)CSc5ccccc5)c(S(=O)(=O)C(F)(F)F)c4)cc3)CC2)C1 [Navitoclax] | 0 | 0 | 0 | 0 | 4 | 0 | 12 | 0 |
| CN1C(=O)N[C@H](Cc2c[nH]c3c(Cl)cccc23)C1=O [Necrostatin 2] | 0 | 0 | 0 | 0 | 0 | 0 | 0 | 0 |
| O=c1ncn2nc(Sc3ccc(F)cc3F)ccc2c1-c1c(Cl)cccc1Cl [Neflamapimod] | 0 | 0.1 | 0.2 | 0.1 | 0.1 | 0.1 | 0.8 | 1.6 |
| COc1nc(N)nc2c1ncn2[C@@H]1O[C@H](CO)[C@@H](O)[C@@H]1O [Nelarabine] | 0 | 0 | 0.1 | 0.1 | 0 | 0.6 | 0 | 0 |
| CCOc1cc2ncc(C#N)c(Nc3ccc(OCc4ccccn4)c(Cl)c3)c2cc1NC(=O)/C=C/CN(C)C [Neratinib] | 0.2 | 4.9 | 0.3 | 0 | 1 | 0.5 | 3.2 | 3.2 |
| CC1(C)NC(=O)N(c2ccc([N+](=O)[O-])c(C(F)(F)F)c2)C1=O [Nilutamide] | 0 | 0 | 0 | 0 | 0 | 0 | 0.4 | 1.1 |
| COC(=O)c1ccc2c(c1)NC(=O)/C2=C(\Nc1ccc(N(C)C(=O)CN2CCN(C)CC2)cc1)c1ccccc1 [Nintedanib] | 0 | 0 | 5.6 | 2.1 | 1.5 | 5.3 | 1.8 | 6.5 |
| NC(=O)c1cccc2cn(-c3ccc([C@@H]4CCCNC4)cc3)nc12 [Niraparib] | 0 | 6.9 | 0 | 0 | 1.4 | 0 | 0 | 0 |
